# Data as given in article PMC7053711, “A G protein–coupled receptor mediates neuropeptide-induced oocyte maturation in the jellyfish Clytia” (PLoS Biology, 2020).
# Peptide text beside a SMILES is read from it.
# Key:
# Clytia MIHR [1] = assay: GPCR deorphanization assay, luminescence response to peptides at 1 μM (CHO-K1 cells, Gα-16, GFP-apoaequorin); format: cell-based, Clytia hemisphaerica; conditions: peptide 1E-6M, normalised to Platynereis FLamide receptor + 1 μM AKYFL-NH2, n = 3
# From the text: We used a cell culture–based GPCR deorphanization assay to identify the MIH receptor from our candidate shortlist. cDNAs for each candidate were transfected into Chinese Hamster ovary K1 (CHO-K1) cells along with the promiscuous Gα protein Gα-16, and an aequorin-GFP luminescence reporter that measures Ca^2+ mobilization downstream of this heterologous Gα protein [27, 28]. We first screened the 16 candidate Clytia GPCRs against a mixture of 33 synthetic amidated peptides (including MIHs) predicted to be generated from previously identified putative Clytia neuropeptide precursors and one additional one identified from transcriptome data. Given our imperfect knowledge of pro-peptide processing in cnidarians, some of the synthetic peptides may not correspond to endogenous peptides. Only one of the 16 GPCRs was activated by this peptide mixture. This receptor responded well to all 4 synthetic Clytia MIH tetrapeptides, as well as to related Cladonema MIH peptides that can also activate Clytia oocyte maturation, but not to other Clytia peptide mixtures or poorly active MIH penta-/tripeptides. We termed this Clytia GPCR the Maturation Inducing Hormone Receptor (MIHR). The activity of individual peptides at 1 μM to stimulate the MIHR closely matched their in vivo ability to induce oocyte maturation (Fig 1B).
# (§1) Cell culture GPCR ligand response assays were performed as described. Briefly, CHO-K1 cells were cultured in Ham’s F12 Nut Mix medium (Thermo Fisher Scientific) with 10% foetal bovine serum. Cells were seeded in 96-well plates at approximately 10,000 cells/well and transfected the following day with pcDNA3.1(+) plasmids encoding each of the 16 candidate Clytia GPCRs (S2 Text), the promiscuous Gα-16 protein [65], and a reporter construct GFP-apoaequorin [66] (60 ng each) using the transfection reagent TurboFect (Thermo Fisher Scientific). After 2 days of expression, the medium was removed and replaced with Hank’s balanced salt solution (HBSS) supplemented with 1.8 mM Ca2+, 10 mM glucose, and […] coelenterazine h (Promega, Madison, WI). After incubation at 37 °C for 2 hours, cells were tested by adding synthetic peptides (GenScript) in HBSS supplemented with 1.8 mM Ca2^+ and 10 mM glucose. A list of all synthetic peptides used is provided in S2 Table. Luminescence was recorded for 45 seconds in a plate reader (BioTek Synergy Mx or Synergy H4; BioTek, Winooski, VT). Data were integrated over the 45-second measurement period and recorded as technical triplicates in each case. Data were normalized using the response of Platynereis FLamide receptor to 1 μM AKYFL-NH2 [28]. Dose–response curves were obtained using concentrations between 0.01 nM and 100 μM for each peptide. Data for dose–response curves were recorded in triplicate for each concentration and the experiment was repeated independently 3 times. Dose–response curves were fitted with a four-parameter curve using Prism 6 (GraphPad, La Jolla, CA) and were normalized to the calculated upper plateau values (100% activation).
# Supplementary file pbio.3000614.s011.xlsx: S1 Data Numerical data corresponding to Fig 1B. Raw luminescence values obtained in triplicate for each of the neuropeptide combinations tested against the MIHR in the deorphanization assay are provided. In the right-hand table, the raw luminescence values obtained in quadruple for the positive and negative controls are provided. In the lower table, means and standard errors of the mean of the luminescence values obtained for each neuropeptide combination and controls are also shown, as well as the values normalized to the positive control, which were used to prepare the graph shown in Fig 1B. MIHR, MIH receptor. (XLSX) Click here for additional data file.
# Clytia MIHR [2] = assay: Dose–response curves of Clytia MIHR, luminescence (CHO-K1 cells, Gα-16, GFP-apoaequorin); format: cell-based, Clytia hemisphaerica; design: key to Span (best-fit value) / Bottom (best-fit value): % activation, normalized to fitted upper plateau (100%); conditions: for EC50: four-parameter fit, variable slope, triplicate; for HillSlope / LogEC50: best-fit value; for Bottom / Span / Top: best-fit value (luminescence)
# Protocol: The Clytia MIH amidated peptides are produced from two precursor genes Che-pp4 (generating multiple copies of WPRAamide, WPRYamide, and WPRPamide) and Che-pp1 (multiple copies of WPRPamide and RPRGamide).
# as §1
# Supplementary file pbio.3000614.s012.xlsx: S2 Data Numerical data corresponding to Fig 1C. The first three tabs show statistical values obtained using Prism 6 software (GraphPad, La Jolla, CA) from the raw luminescence values for 3 independent dose–response experiments. The raw luminescence values are shown, as well as the values normalized with respect to the maximum. […] MIH, maturation-inducing hormone. (XLSX) Click here for additional data file.
# [3] = log(agonist) vs. response, variable slope (four parameters), fit of third dataset
structure (smiles),measurement,setting,value
C[C@H](NC(=O)[C@H](CCCNC(=N)N)NC(=O)[C@@H]1CCCN1C(=O)[C@@H](N)Cc1c[nH]c2ccccc12)C(N)=O [WPRAa] (H-WPRA-NH2; N-terminus assumed),"Normalised response (to positive control), mean",Clytia MIHR [1],0.2465
same,EC50,Clytia MIHR [2]; dataset/experiment 1,0.14 µM
same,EC50,Clytia MIHR [2]; dataset/experiment 2,0.94 µM
same,HillSlope,Clytia MIHR [2]; first dataset,1.505
same,LogEC50,Clytia MIHR [2]; first dataset,-6.854
same,Bottom,Clytia MIHR [2]; first dataset,1277
same,Span,Clytia MIHR [2]; first dataset,50384
same,Top,Clytia MIHR [2]; first dataset,51660
same,Bottom (best-fit value),Clytia MIHR [2]; [3],12.04
same,HillSlope (best-fit value),Clytia MIHR [2]; [3],1.48
same,LogEC50 (best-fit value),Clytia MIHR [2]; [3],-6.272
same,Span (best-fit value),Clytia MIHR [2]; [3],87.97
same,HillSlope,Clytia MIHR [2]; second dataset,1.06
same,LogEC50,Clytia MIHR [2]; second dataset,-6.027
same,Bottom,Clytia MIHR [2]; second dataset,2165
same,Span,Clytia MIHR [2]; second dataset,21649
same,Top,Clytia MIHR [2]; second dataset,23814
